Measurements published in the supplement of paper PMC11208160.

Assay: recombinant UMI read abundance after kanamycin selection (control-corrected) (log10(CPM+1)); higher = more efficient recombination; extreme values may be limits of the assay; sequences stand for … in AGTGCAGAGAAAATCGGCCAGTTTTCTCTGCCTGCAGTCCGCATGCCGTGGGACCCCTTGGGTTCTAACCTGTTGCCTAGATTTATGCAGCGGACTGCCTTTCTCCCAAAGTGATAAACCGG…AGGTTGGTTTCACT; site = the 11-nt donor
Procedure, shortened: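 For the IS621 bridge recombinase, a pooled Escherichia coli screen tested donor and donor-binding-loop pairs. Cells received the pair library together with a target plasmid encoding a fixed target and T7-inducible recombinase, then went onto IPTG (0.07 mM) plus kanamycin or unselected plates in duplicate. After PCR across the donor–target junction and sequencing, recombinant UMI counts were normalized to CPM, averaged, and scaled by control-derived factors. Each value is given as log10(CPM+1).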
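Also: IS621 bridge recombinase in Escherichia coli cells against a fixed T5 target plasmid.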

AGTAGCACATGGACCGGTTTTCCCGGTAATCCGTATTTGAG (site AGTAGCACTCT)
recombinant UMI read abundance (log10): 1.24

AGTAGGACATGGACCGGTTTTCCCGGTAATCCGTATTTGCA (site AGGAAGACTTG)
recombinant UMI read abundance (log10): 1.45

AGTAGGACATGGACCGGTTTTCCCGGTAATCCGTATTTGCA (site AGTAGGACTTG)
recombinant UMI read abundance (log10): 2.91

AGTAGGGCATGGACCGGTTTTCCCGGTAATCCGTATTTGAG (site AGTAGGGCTCT)
recombinant UMI read abundance (log10): 1.41

AGTCAAGCATGGACCGGTTTTCCCGGTAATCCGTATTTGAA (site AGTCAAGCTTT)
recombinant UMI read abundance (log10): 1.39

AGTCCAACATGGACCGGTTTTCCCGGTAATCCGTATTTGTA (site AGTCCAACTTA)
recombinant UMI read abundance (log10): 0.694

AGTCCAACATGGACCGGTTTTCCCGGTAATCCGTATTTGTA (site CGTCCAACTTA)
recombinant UMI read abundance (log10): 0

AGTCCAACATGGACCGGTTTTCCCGGTAATCCGTATTTGTA (site GGTCCAACTTA)
recombinant UMI read abundance (log10): 0.172

AGTCCAACATGGACCGGTTTTCCCGGTAATCCGTATTTGTA (site TGTCCAACTTA)
recombinant UMI read abundance (log10): 0.141

AGTCCTTCATGGACCGGTTTTCCCGGTAATCCGTATTTGCA (site AGTCCTTCTTG)
recombinant UMI read abundance (log10): 1.24

AGTCTACCATGGACCGGTTTTCCCGGTAATCCGTATTTGCT (site AGTCTACCTAG)
recombinant UMI read abundance (log10): 0

AGTGAGACATGGACCGGTTTTCCCGGTAATCCGTATTTGGT (site AATGAGACTAC)
recombinant UMI read abundance (log10): 0.439

AGTGAGACATGGACCGGTTTTCCCGGTAATCCGTATTTGGT (site ACTGAGACTAC)
recombinant UMI read abundance (log10): 0.312

AGTGAGACATGGACCGGTTTTCCCGGTAATCCGTATTTGGT (site AGTGAGACTAC)
recombinant UMI read abundance (log10): 1.21

AGTGAGACATGGACCGGTTTTCCCGGTAATCCGTATTTGGT (site ATTGAGACTAC)
recombinant UMI read abundance (log10): 0.546

AGTGCAACATGGACCGGTTTTCCCGGTAATCCGTATTTGGC (site AGTGCAACTGC)
recombinant UMI read abundance (log10): 0

AGTGGCTCATGGACCGGTTTTCCCGGTAATCCGTATTTGAG (site AGTGGCTCTCT)
recombinant UMI read abundance (log10): 1.27

AGTGGGACATGGACCGGTTTTCCCGGTAATCCGTATTTGGC (site AGTGGGACTGC)
recombinant UMI read abundance (log10): 2.85

AGTGTAGCATGGACCGGTTTTCCCGGTAATCCGTATTTGGG (site AGTGTAGCTCC)
recombinant UMI read abundance (log10): 0.00834

AGTGTGACATGGACCGGTTTTCCCGGTAATCCGTATTTGTA (site AGTGTGACTTA)
recombinant UMI read abundance (log10): 1.91

AGTGTGTCATGGACCGGTTTTCCCGGTAATCCGTATTTGAC (site AATGTGTCTGT)
recombinant UMI read abundance (log10): 0

AGTGTGTCATGGACCGGTTTTCCCGGTAATCCGTATTTGAC (site ACTGTGTCTGT)
recombinant UMI read abundance (log10): 0.812

AGTGTGTCATGGACCGGTTTTCCCGGTAATCCGTATTTGAC (site AGTGTGTCTGT)
recombinant UMI read abundance (log10): 1.98

AGTGTGTCATGGACCGGTTTTCCCGGTAATCCGTATTTGAC (site ATTGTGTCTGT)
recombinant UMI read abundance (log10): 0

AGTGTTACATGGACCGGTTTTCCCGGTAATCCGTATTTGCT (site AGTGTTACTAG)
recombinant UMI read abundance (log10): 2.01

AGTTAGACATGGACCGGTTTTCCCGGTAATCCGTATTTGCA (site AGGAAGACTTG)
recombinant UMI read abundance (log10): 1.51

AGTTAGACATGGACCGGTTTTCCCGGTAATCCGTATTTGCA (site AGTTAGACTTG)
recombinant UMI read abundance (log10): 1.93

AGTTCAGCATGGACCGGTTTTCCCGGTAATCCGTATTTGGC (site AGTTCAGCTGC)
recombinant UMI read abundance (log10): 0.972

AGTTCCACATGGACCGGTTTTCCCGGTAATCCGTATTTGGC (site AGTTCCACTGC)
recombinant UMI read abundance (log10): 1.42

AGTTCCACATGGACCGGTTTTCCCGGTAATCCGTATTTGTA (site AGTTCCACTTA)
recombinant UMI read abundance (log10): 0.751

AGTTGGTCATGGACCGGTTTTCCCGGTAATCCGTATTTGAA (site AGTTGGTCTTT)
recombinant UMI read abundance (log10): 0.435

AGTTTCGCATGGACCGGTTTTCCCGGTAATCCGTATTTGGT (site AGTTTCGCTAC)
recombinant UMI read abundance (log10): 0.564

ATAAGGCCATGGACCGGTTTTCCCGGTAATCCGTATTTGAT (site ATAAGGCCTAT)
recombinant UMI read abundance (log10): 0.221

ATAAGGCCATGGACCGGTTTTCCCGGTAATCCGTATTTGAT (site ATAAGGCCTCT)
recombinant UMI read abundance (log10): 0.00711

ATAAGGCCATGGACCGGTTTTCCCGGTAATCCGTATTTGAT (site ATAAGGCCTGT)
recombinant UMI read abundance (log10): 0

ATAAGGCCATGGACCGGTTTTCCCGGTAATCCGTATTTGAT (site ATAAGGCCTTT)
recombinant UMI read abundance (log10): 0.0201

ATAATGCCATGGACCGGTTTTCCCGGTAATCCGTATTTGAC (site ATAAAGCCTGT)
recombinant UMI read abundance (log10): 0.589

ATAATGCCATGGACCGGTTTTCCCGGTAATCCGTATTTGAC (site ATAACGCCTGT)
recombinant UMI read abundance (log10): 0.155

ATAATGCCATGGACCGGTTTTCCCGGTAATCCGTATTTGAC (site ATAAGGCCTGT)
recombinant UMI read abundance (log10): 0

ATAATGCCATGGACCGGTTTTCCCGGTAATCCGTATTTGAC (site ATAATGCCTGT)
recombinant UMI read abundance (log10): 2.03

ATACCCACATGGACCGGTTTTCCCGGTAATCCGTATTTGAC (site ATACCCACTGT)
recombinant UMI read abundance (log10): 2.65

ATACGCACATGGACCGGTTTTCCCGGTAATCCGTATTTGAA (site ATACGCACTTT)
recombinant UMI read abundance (log10): 1.55

ATACGCACATGGACCGGTTTTCCCGGTAATCCGTATTTGTT (site ATACGCACTAA)
recombinant UMI read abundance (log10): 1.29

ATACTATCATGGACCGGTTTTCCCGGTAATCCGTATTTGAC (site ATACTATCTGT)
recombinant UMI read abundance (log10): 3.39

ATACTATCATGGACCGGTTTTCCCGGTAATCCGTATTTGAC (site CTAGTATCTGT)
recombinant UMI read abundance (log10): 0

ATAGGCCCATGGACCGGTTTTCCCGGTAATCCGTATTTGAA (site ATAGGCCCTTT)
recombinant UMI read abundance (log10): 0.215

ATAGGGCCATGGACCGGTTTTCCCGGTAATCCGTATTTGAC (site ATAAGGCCTGT)
recombinant UMI read abundance (log10): 1.44

ATAGGGCCATGGACCGGTTTTCCCGGTAATCCGTATTTGAC (site ATACGGCCTGT)
recombinant UMI read abundance (log10): 0

ATAGGGCCATGGACCGGTTTTCCCGGTAATCCGTATTTGAC (site ATAGGGCCTGT)
recombinant UMI read abundance (log10): 0

ATAGGGCCATGGACCGGTTTTCCCGGTAATCCGTATTTGAC (site ATATGGCCTGT)
recombinant UMI read abundance (log10): 0

ATAGGTCCATGGACCGGTTTTCCCGGTAATCCGTATTTGTT (site ATAGGTCCTAA)
recombinant UMI read abundance (log10): 0.95

ATAGGTGCATGGACCGGTTTTCCCGGTAATCCGTATTTGTC (site ATAGGTGCTGA)
recombinant UMI read abundance (log10): 2.7

ATAGTTCCATGGACCGGTTTTCCCGGTAATCCGTATTTGGA (site ATAGTTCCTTC)
recombinant UMI read abundance (log10): 0.223

ATATATACATGGACCGGTTTTCCCGGTAATCCGTATTTGAC (site ATATATACTGT)
recombinant UMI read abundance (log10): 2.65

ATATATACATGGACCGGTTTTCCCGGTAATCCGTATTTGAC (site ATCTATACTGT)
recombinant UMI read abundance (log10): 0.727

ATATATACATGGACCGGTTTTCCCGGTAATCCGTATTTGAC (site ATGTATACTGT)
recombinant UMI read abundance (log10): 1.62

ATATATACATGGACCGGTTTTCCCGGTAATCCGTATTTGAC (site ATTTATACTGT)
recombinant UMI read abundance (log10): 0.227

ATATCAACATGGACCGGTTTTCCCGGTAATCCGTATTTGTA (site ATATCAACTTA)
recombinant UMI read abundance (log10): 1.61

ATATGAACATGGACCGGTTTTCCCGGTAATCCGTATTTGAC (site ATATGAACTGT)
recombinant UMI read abundance (log10): 2.9

ATATTTGCATGGACCGGTTTTCCCGGTAATCCGTATTTGAC (site ATATTTGCTGT)
recombinant UMI read abundance (log10): 2.1

ATCACACCATGGACCGGTTTTCCCGGTAATCCGTATTTGTC (site ATCACACCTGA)
recombinant UMI read abundance (log10): 0

ATCACAGCATGGACCGGTTTTCCCGGTAATCCGTATTTGGG (site ATCACAGCTCC)
recombinant UMI read abundance (log10): 0.00407

ATCACCTCATGGACCGGTTTTCCCGGTAATCCGTATTTGCT (site ATCACCTCTAG)
recombinant UMI read abundance (log10): 2.75

ATCCAAACATGGACCGGTTTTCCCGGTAATCCGTATTTGAG (site ATCCAAACTCT)
recombinant UMI read abundance (log10): 1.6

ATCCAAACATGGACCGGTTTTCCCGGTAATCCGTATTTGAG (site ATCCAACCTCT)
recombinant UMI read abundance (log10): 0.01

ATCCAAACATGGACCGGTTTTCCCGGTAATCCGTATTTGAG (site ATCCAAGCTCT)
recombinant UMI read abundance (log10): 0.432

ATCCAAACATGGACCGGTTTTCCCGGTAATCCGTATTTGAG (site ATCCAATCTCT)
recombinant UMI read abundance (log10): 0.352

ATCCAACCATGGACCGGTTTTCCCGGTAATCCGTATTTGAG (site ATCCAAACTCT)
recombinant UMI read abundance (log10): 0.0118

ATCCAACCATGGACCGGTTTTCCCGGTAATCCGTATTTGAG (site ATCCAACCTCT)
recombinant UMI read abundance (log10): 0

ATCCAACCATGGACCGGTTTTCCCGGTAATCCGTATTTGAG (site ATCCAAGCTCT)
recombinant UMI read abundance (log10): 0.133

ATCCAACCATGGACCGGTTTTCCCGGTAATCCGTATTTGAG (site ATCCAATCTCT)
recombinant UMI read abundance (log10): 0.257

ATCCAGGCATGGACCGGTTTTCCCGGTAATCCGTATTTGTG (site ATCCAGGCTCA)
recombinant UMI read abundance (log10): 0.328

ATCCCGGCATGGACCGGTTTTCCCGGTAATCCGTATTTGGG (site ATCCCGGCTCC)
recombinant UMI read abundance (log10): 0.00576

ATCCCTACATGGACCGGTTTTCCCGGTAATCCGTATTTGCA (site ATCCCTACTTG)
recombinant UMI read abundance (log10): 1.81

ATCCCTGCATGGACCGGTTTTCCCGGTAATCCGTATTTGTG (site ATCCCTGCTCA)
recombinant UMI read abundance (log10): 0.13
